Assay results taken from ChEMBL document CHEMBL1201862, “PubChem BioAssay data set” (2004).
The source made the active and inactive calls.

What was measured:
[1] = target: Voltage-dependent T-type calcium channel subunit alpha-1H (Homo sapiens, UniProt O95180); type: functional;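 note: channel activity triggered by adding a high calcium stimulation buffer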
[2] = system: Streptococcus sp. 'group A'; assay: Streptococcus pyogenes SK(-)GAS viability under kanamycin – luminescence, BacTiterGlo, confirmation, counter-screen for streptokinase expression inhibitor project, dose response (AID 1900); type: functional, organism-based
Streptococcus = assay: GAS UMAA2166 growth inhibition – luminescence, BacTiterGlo, counter-screen for streptokinase expression inhibitor project, dose response (AID 1915); type: functional, organism-based;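 note: potency for reduction of bacterial viability or growth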
Streptokinase A = target: T1, Streptokinase A (Streptococcus pyogenes serotype M1, UniProt P10520); assay: viability-normalized secreted streptokinase activity reduction – plasminogen activation absorbance, OD405, dose response (AID 1914); type: functional, Streptococcus pyogenes M1 GAS;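 note: secreted streptokinase activity via plasminogen activation per viability signal from cell pellet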
T1 sequence (P10520 whole entry): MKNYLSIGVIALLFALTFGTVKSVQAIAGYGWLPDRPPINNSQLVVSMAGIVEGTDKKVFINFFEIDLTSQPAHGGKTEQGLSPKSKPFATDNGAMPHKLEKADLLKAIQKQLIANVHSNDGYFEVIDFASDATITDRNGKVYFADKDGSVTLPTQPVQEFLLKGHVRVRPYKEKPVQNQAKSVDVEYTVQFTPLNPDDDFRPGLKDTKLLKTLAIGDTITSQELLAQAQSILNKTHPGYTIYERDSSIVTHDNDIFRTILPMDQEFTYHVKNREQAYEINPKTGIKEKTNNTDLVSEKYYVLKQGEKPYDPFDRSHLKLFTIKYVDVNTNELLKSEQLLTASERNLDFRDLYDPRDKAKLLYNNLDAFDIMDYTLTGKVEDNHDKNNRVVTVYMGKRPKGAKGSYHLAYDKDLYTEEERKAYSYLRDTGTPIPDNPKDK

[3] = off-target signal loss in HeLa-CEM21 co-culture – HeLa F-luc CTL cells, cherry-picked, counter-screen for HIV-1 Env fusion inhibitor project, dose response (AID 652040); type: functional, cell-based;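 note: potency for signal decrease marking cytotoxic or nonspecific inhibition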
[4] = blockers of HIV-1 envelope-mediated cell-cell fusion – cherry-pick, dose response (AID 652057); type: functional, cell-based
[5] = HIV-1 AD8 envelope cell-cell fusion blockers – cherry-pick, dose response (AID 652062); type: functional, cell-based;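 note: luciferase signal from cell-cell fusion driven by HIV-1 clade B AD8 Env; potency is for inhibitors of fusion seen as a drop in luminescence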
[6] = blockers of HIV-1 ZM109 envelope-driven cell-cell fusion – HeLa effector, CEM target cells, luciferase, cherry-pick, dose response (AID 652058); type: functional, cell-based;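 note: luciferase signal from HIV-1 Env mediated cell-cell fusion of effector and target cells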
[7] = target: Peroxisome proliferator-activated receptor gamma/Nuclear receptor coactivator 2 (Homo sapiens, UniProt P37231); assay: (§1) TR-FRET dose response biochemical High Throughput Screening assay for agonists of the steroid receptor coactivator 2 (SRC-2) recruitment by the peroxisome proliferator-activated receptor gamma (PPAR gamma): non-selective agonists. [Related pubchem assays: 1297, 1032 ]; type: functional
[8] = target: Peroxisome proliferator-activated receptor gamma/Nuclear receptor coactivator 1 (Homo sapiens, UniProt P37231); assay: as §1, with “1 (SRC-1)” for “2 (SRC-2)”, “assays (depositor defined):AID1300, AID1808, AID504735, AID631]” for “assays: 1297, 1032 ]”; type: protein assay
[9] = target: Peroxisome proliferator-activated receptor gamma/Nuclear receptor coactivator 3 (Homo sapiens, UniProt P37231); assay: as §1, with “3 (SRC-3)” for “2 (SRC-2)”, “1301 (Confirmation screen.), 1048 (Primary screen.)]” for “1297, 1032 ]”; type: functional
Protein RecA = target: T2, Protein RecA (Mycobacterium tuberculosis, UniProt P9WHJ3); assay: Fluorescence Cell-Free Homogeneous Dose Retest to Identify Inhibitors of RecA-Intein Splicing Activity. [Related pubchem assays (depositor defined):AID2097, AID2223, AID489010, AID492950]; type: functional
T2 sequence (P9WHJ3 whole entry): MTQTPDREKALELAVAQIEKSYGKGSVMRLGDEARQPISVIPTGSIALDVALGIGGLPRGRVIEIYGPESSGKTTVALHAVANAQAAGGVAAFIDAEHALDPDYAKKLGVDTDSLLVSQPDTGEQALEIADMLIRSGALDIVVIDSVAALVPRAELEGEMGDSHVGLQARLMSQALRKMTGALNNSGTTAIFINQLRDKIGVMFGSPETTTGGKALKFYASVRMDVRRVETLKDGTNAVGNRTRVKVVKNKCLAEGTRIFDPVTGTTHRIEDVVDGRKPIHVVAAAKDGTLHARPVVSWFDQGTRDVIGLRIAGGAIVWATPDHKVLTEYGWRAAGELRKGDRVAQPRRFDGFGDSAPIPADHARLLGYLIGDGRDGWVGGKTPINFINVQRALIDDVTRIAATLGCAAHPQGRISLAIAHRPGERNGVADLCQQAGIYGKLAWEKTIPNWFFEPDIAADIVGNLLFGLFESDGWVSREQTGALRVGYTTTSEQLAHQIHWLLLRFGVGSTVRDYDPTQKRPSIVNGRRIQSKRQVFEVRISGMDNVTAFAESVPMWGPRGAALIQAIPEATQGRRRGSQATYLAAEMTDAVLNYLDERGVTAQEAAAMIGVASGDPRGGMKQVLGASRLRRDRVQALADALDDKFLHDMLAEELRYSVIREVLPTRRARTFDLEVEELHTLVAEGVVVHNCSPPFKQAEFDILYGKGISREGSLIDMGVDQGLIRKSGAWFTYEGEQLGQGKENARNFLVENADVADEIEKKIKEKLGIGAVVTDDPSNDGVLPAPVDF

[10] = target: T3, Replicative DNA helicase DnaB (Mycobacterium tuberculosis, UniProt P9WMR3); assay: DnaB intein splicing inhibitors, dose response, biochemical, cell-free fluorescence (AID 449749); type: functional
T3 sequence (P9WMR3 whole entry): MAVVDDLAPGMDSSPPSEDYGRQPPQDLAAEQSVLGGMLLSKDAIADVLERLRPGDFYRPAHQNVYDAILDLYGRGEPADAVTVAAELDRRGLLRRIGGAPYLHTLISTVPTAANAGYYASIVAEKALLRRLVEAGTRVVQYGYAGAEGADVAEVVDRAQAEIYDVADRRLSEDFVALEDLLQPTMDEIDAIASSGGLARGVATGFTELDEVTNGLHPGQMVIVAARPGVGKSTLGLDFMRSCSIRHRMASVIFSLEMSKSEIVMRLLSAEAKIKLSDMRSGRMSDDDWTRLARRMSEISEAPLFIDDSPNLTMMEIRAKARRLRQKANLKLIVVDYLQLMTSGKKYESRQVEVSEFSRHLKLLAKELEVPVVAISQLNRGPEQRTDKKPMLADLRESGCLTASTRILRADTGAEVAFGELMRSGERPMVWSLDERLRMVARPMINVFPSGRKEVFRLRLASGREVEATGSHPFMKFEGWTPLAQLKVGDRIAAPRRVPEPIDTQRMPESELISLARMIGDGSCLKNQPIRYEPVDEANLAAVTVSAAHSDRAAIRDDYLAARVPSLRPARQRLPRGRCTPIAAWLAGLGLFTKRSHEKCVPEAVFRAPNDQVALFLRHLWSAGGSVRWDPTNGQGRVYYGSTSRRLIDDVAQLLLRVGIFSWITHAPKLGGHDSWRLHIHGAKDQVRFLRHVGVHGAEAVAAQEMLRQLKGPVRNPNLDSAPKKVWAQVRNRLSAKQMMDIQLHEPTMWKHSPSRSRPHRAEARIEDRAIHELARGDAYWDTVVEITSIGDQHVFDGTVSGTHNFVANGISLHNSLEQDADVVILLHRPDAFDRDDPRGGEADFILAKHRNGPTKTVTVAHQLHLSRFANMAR

[11] = target: T4, Endoribonuclease toxin MazF (Escherichia coli K-12, UniProt P0AE70); assay: activation of MazEF endoribonuclease cleavage – biochemical, fluorescence, single-stranded RNA substrate, uHTS hits, dose response (AID 588481); type: functional
T4 sequence (P0AE70 whole entry): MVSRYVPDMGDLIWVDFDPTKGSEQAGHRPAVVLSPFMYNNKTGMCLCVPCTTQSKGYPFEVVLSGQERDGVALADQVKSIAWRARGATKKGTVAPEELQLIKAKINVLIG

[12] = target: T4, Endoribonuclease toxin MazF; assay: substrate-only fluorescence increase artefacts – biochemical, single-stranded RNase substrate, counter-screen for MazEF activator project, dose response (AID 588502); type: functional
Vero = assay: cells; type: functional; settings: Chlorocebus sabaeus
[13] = target: DNA dC->dU-editing enzyme APOBEC-3G (Homo sapiens, UniProt Q9HC16); type: functional;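 note: Dose-response counterscreen measuring inhibition of APOBEC3G DNA deaminase activity, run while confirming APOBEC3A inhibitors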
[14] = target: DNA dC->dU-editing enzyme APOBEC-3A (Homo sapiens, UniProt P31941); assay: Dose Response confirmation of small molecule APOBEC3A DNA Deaminase Inhibitors via a fluorescence-based single-stranded DNA deaminase assay. [Related pubchem assays (depositor defined):AID493011, AID493024]; type: functional
cells = type: functional
[15] = target: T5, Calpain-2 catalytic subunit (Sus scrofa, UniProt P43367); assay: m-calpain protease blockers, concentration series – biochemical, fluorogenic peptide substrate, dose response (AID 1420); type: functional
T5 sequence (P43367 whole entry): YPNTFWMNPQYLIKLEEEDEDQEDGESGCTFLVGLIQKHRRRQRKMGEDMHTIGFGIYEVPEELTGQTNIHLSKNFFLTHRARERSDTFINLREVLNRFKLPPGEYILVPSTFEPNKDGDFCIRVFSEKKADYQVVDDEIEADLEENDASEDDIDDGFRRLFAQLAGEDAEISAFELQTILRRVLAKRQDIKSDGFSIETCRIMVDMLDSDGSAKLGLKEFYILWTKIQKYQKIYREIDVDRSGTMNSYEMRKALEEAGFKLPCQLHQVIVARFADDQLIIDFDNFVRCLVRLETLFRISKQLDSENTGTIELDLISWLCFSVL

Paired box protein Pax-8 = Paired box protein Pax-8 (Homo sapiens, UniProt Q06710); assay: PAX8 transcriptional activity inhibition in RMG-I – RMG-I cells, luciferase, cherry-pick, dose response (AID 687027); type: functional, cell-based;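 note: luciferase reporter driven by Pax8 target thyroperoxidase promoter measured by SteadyGlo luminescence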
Sequence of Paired box protein Pax-8 (Q06710 whole entry): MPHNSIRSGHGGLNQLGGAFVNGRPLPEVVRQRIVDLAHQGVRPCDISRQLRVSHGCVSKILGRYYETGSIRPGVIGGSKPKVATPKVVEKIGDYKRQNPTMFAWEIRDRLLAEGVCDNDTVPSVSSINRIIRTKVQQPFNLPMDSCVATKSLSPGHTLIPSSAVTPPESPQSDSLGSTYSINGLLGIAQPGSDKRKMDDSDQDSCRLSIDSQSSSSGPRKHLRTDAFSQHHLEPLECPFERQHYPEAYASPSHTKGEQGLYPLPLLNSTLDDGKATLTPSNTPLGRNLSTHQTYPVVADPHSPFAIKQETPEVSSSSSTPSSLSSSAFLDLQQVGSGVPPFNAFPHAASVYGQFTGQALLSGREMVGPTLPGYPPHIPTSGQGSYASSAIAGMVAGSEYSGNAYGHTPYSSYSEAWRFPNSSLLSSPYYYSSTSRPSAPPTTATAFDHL

Sequence of DNA dC->dU-editing enzyme APOBEC-3A (P31941 whole entry): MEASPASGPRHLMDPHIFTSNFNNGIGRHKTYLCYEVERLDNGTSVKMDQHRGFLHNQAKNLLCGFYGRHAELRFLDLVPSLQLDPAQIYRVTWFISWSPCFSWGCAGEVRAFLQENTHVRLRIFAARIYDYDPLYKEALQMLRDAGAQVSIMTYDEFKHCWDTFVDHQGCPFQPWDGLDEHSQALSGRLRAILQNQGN
Sequence of Peroxisome proliferator-activated receptor gamma/Nuclear receptor coactivator 3 (P37231 whole entry): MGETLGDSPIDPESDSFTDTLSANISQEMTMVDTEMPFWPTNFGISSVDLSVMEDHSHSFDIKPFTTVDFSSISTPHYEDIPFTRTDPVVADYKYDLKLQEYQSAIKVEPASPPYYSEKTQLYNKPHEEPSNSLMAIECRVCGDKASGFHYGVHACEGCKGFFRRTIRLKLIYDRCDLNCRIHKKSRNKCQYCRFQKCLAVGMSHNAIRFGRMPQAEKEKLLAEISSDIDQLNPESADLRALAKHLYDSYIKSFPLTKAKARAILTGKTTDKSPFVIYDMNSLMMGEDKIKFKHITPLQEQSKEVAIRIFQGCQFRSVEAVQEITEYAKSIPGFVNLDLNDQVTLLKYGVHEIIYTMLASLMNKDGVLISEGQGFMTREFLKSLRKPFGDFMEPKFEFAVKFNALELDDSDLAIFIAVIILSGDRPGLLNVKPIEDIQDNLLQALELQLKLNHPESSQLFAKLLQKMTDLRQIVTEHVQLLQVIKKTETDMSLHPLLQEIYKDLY
Sequence of Peroxisome proliferator-activated receptor gamma/Nuclear receptor coactivator 3 (Q9Y6Q9 whole entry, further chain): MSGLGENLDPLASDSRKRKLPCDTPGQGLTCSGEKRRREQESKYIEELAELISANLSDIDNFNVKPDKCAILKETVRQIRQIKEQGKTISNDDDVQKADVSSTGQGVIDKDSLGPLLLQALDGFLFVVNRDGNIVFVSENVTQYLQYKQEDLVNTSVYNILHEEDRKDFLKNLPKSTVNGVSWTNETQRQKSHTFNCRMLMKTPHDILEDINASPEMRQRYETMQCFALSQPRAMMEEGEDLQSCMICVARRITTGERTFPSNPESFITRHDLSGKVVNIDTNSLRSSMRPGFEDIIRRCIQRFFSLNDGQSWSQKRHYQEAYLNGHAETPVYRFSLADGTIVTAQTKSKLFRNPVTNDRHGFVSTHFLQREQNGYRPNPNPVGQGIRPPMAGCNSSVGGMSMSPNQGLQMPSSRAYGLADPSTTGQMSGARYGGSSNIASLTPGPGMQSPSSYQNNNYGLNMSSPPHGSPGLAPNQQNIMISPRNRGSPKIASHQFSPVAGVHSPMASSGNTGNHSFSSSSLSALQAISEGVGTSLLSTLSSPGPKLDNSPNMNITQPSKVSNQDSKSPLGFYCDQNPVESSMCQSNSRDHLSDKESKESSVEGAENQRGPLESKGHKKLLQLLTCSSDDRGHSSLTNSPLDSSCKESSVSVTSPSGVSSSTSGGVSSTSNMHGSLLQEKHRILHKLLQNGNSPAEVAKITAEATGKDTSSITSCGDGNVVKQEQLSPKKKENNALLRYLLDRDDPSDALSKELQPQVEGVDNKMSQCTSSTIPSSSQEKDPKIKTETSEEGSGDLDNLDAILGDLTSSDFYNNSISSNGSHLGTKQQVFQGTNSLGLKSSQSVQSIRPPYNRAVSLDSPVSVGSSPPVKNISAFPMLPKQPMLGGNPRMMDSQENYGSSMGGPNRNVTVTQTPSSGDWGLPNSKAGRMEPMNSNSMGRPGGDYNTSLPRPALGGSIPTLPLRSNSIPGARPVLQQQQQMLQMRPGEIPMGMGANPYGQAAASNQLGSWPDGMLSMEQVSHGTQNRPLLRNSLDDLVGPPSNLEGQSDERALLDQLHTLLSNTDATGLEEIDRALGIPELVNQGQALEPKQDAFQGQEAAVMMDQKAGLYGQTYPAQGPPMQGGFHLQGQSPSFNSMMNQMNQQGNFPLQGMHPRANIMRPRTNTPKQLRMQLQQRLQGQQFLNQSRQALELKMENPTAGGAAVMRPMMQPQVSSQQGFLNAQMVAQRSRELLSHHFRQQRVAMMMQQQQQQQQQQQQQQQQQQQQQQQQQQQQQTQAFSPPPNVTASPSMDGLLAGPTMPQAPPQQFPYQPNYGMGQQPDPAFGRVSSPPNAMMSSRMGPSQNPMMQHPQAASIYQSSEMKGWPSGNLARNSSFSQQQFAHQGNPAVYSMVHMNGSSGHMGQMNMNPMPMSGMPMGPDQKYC
Sequence of Peroxisome proliferator-activated receptor gamma/Nuclear receptor coactivator 2 (P37231 whole entry): as the sequence (P37231 whole entry) above
Sequence of Peroxisome proliferator-activated receptor gamma/Nuclear receptor coactivator 2 (Q15596 whole entry, further chain): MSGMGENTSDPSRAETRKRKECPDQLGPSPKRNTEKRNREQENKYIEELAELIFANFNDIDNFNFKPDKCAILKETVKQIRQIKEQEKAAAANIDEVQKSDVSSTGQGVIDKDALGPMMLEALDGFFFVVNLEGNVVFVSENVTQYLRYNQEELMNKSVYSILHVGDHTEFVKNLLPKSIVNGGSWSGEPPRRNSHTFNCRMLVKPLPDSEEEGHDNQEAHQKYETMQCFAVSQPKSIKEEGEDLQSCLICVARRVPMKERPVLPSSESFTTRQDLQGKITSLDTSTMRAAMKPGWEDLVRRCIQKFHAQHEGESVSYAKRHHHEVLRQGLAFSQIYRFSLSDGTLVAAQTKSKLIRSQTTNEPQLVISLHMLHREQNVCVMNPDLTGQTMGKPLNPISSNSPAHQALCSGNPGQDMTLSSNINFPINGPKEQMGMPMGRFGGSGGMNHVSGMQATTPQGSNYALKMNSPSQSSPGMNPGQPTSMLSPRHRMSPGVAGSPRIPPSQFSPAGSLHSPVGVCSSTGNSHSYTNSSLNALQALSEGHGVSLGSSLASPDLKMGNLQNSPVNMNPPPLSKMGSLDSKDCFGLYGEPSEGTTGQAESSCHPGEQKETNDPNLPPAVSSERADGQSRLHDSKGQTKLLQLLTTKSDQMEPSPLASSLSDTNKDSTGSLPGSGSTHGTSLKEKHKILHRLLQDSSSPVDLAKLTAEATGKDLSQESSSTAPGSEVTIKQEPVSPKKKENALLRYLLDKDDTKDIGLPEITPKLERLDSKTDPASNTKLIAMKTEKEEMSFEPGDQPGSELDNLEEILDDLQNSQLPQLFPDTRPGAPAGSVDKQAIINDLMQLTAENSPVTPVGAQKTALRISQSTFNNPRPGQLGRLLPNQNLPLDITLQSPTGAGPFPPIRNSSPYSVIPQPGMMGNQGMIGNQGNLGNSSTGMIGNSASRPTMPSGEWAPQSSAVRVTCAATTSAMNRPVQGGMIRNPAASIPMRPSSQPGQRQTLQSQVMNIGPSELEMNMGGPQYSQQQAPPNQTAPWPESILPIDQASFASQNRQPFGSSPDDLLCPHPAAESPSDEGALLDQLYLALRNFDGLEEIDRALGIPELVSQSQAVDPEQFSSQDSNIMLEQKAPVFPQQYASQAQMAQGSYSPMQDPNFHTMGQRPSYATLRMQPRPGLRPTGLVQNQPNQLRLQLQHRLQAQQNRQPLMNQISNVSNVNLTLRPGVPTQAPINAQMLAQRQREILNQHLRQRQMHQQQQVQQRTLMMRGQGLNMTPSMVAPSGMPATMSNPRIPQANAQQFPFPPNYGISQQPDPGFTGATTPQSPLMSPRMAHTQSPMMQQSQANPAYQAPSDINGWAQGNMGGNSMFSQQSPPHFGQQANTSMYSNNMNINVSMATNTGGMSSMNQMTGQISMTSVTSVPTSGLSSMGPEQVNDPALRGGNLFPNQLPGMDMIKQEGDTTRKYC
Sequence of DNA dC->dU-editing enzyme APOBEC-3G (Q9HC16 whole entry): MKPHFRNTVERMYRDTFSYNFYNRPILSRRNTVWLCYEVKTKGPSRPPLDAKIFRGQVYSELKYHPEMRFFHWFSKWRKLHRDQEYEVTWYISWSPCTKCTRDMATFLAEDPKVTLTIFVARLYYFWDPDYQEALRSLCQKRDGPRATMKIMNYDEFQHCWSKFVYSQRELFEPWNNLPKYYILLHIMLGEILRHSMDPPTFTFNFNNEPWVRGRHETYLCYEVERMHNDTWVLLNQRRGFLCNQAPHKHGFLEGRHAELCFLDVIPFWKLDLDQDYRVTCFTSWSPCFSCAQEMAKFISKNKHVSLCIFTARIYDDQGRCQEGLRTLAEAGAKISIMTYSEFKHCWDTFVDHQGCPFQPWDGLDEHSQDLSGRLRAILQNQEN

## O=C(CN1CCc2ccccc2C1)Nc1ccccc1N1CCCCCC1
[1]
  EC50: 8.39 µM (active)
[2]
  EC50: 6.54 µM (active)
Streptococcus
  EC50: 13.3 µM (active)
Streptokinase A
  EC50: 13 µM (active)

## Cc1ccc(N2C(=O)N3[C@H](c4cccc(C)c4)[C@@H]4C(=O)N(Cc5ccccc5)C(=O)[C@@H]4[C@]3(C)C2=O)cc1
[3]
  AC50: 3.88 µM (active)
[4]
  AC50: 3.36 µM (active)
[5]
  AC50: 2.33 µM (active)
[6]
  AC50: 1.2 µM (active)

## O=C(Nc1ccc(N2CCN(C(=O)c3ccccc3)CC2)c(Cl)c1)c1cccnc1
[3]
  AC50: 20.5 µM (active)
[5]
  AC50: 12.6 µM (active)
[2]
  EC50: 12.4 µM (active)
Streptococcus
  EC50: 14.7 µM (active)
Streptokinase A
  EC50: > 150 µM (not active)

## Cc1ccc2cc(C#N)c(NCCNC(=O)C3CC3)nc2c1C
[3]
  AC50: 2.96 µM (active)
[4]
  AC50: 4.5 µM (active)
[5]
  AC50: 6.25 µM (active)
[6]
  AC50: 4.47 µM (active)

## O=C(CCC1N=C2c3ccccc3N=C(SCc3ccccc3Cl)N2C1=O)NCc1ccco1 (stereo unspecified)
[1]
  EC50: 14 µM (active)

## N#Cc1cc2c(nc1SCc1ccccc1)CCCCC2
[7]
  EC50: 12.7 µM (not active)
[8]
  EC50: > 8.82 µM (inactive)
[9]
  EC50: > 79.4 µM (not active)

## COc1cccc(NC(=O)CSc2c3c(nc4ccccc24)CCCC3)c1
Protein RecA
  EC50: 3.36 µM (active)
[10]
  AC50: 35.9 µM (active)
[7]
  EC50: 66.1 µM (not active)
[8]
  EC50: > 79.4 µM (inactive)
[9]
  EC50: > 79.4 µM (not active)

## COc1ccc(CNC(=O)C(C#N)c2nc3ccccc3nc2N2CCCC2)cc1 (stereo unspecified)
[11]
  EC50: 9.99 µM (active)
[12]
  EC50: 14.5 µM (active)

## O=C(Nc1nnc(-c2ccc3c(c2)CCCC3)o1)C1COc2ccccc2O1 (stereo unspecified)
[1]
  EC50: 1.37 µM (active)

## COc1ccc(C(=O)CC(SCC(NC(C)=O)C(=O)O)c2ccc(Cl)cc2)cc1OC (stereo unspecified)
Vero
  CC50: 22.4 µM (active)

## O=C(CSc1nnnn1-c1ccccc1)N1CCc2ccccc21
[13]
  IC50: 4.32 µM (active)
[14]
  IC50: 6.17 µM (active)

## Cc1ccc(C)c(CS(=O)(=O)c2cn(CC(=O)N3CCC(C)CC3)c3ccccc23)c1
[3]
  AC50: 3.13 µM (active)
[4]
  AC50: 2.82 µM (active)
[5]
  AC50: 2.04 µM (active)
[6]
  AC50: 3.03 µM (active)

## CCn1c(=O)cc(SCC(=O)Nc2ccc(OC)c(OC)c2)c2ccccc21
[7]
  EC50: 53.8 µM (not active)
[8]
  EC50: > 79.4 µM (inactive)
[9]
  EC50: > 79.4 µM (not active)

## COc1cccc(OCC(O)CN2CCC(Cc3ccccc3)CC2)c1 (stereo unspecified)
[1]
  EC50: 4.62 µM (active)

## CC(=O)c1ccc(S(=O)(=O)N2Cc3ccccc3CC2C(=O)O)cc1 (stereo unspecified)
[13]
  IC50: 43.7 µM (active)
[14]
  IC50: 14 µM (active)

## CC(C)(C)c1ccc(OCCC(=O)Nc2cccc(S(=O)(=O)N3CCOCC3)c2)cc1
[3]
  AC50: 48.2 µM (active)
[4]
  AC50: 22.2 µM (active)
[5]
  AC50: 53.1 µM (active)

## COc1ccc2[nH]c(O)c(N=O)c2c1
[13]
  IC50: 4.41 µM (active)
[14]
  IC50: 2.64 µM (active)

## CSC1=NP(=S)(SC)N(C)c2nc3n(c21)CCC3 (stereo unspecified)
[7]
  EC50: > 79.4 µM (not active)
[8]
  EC50: > 79.4 µM (inactive)
[9]
  EC50: > 79.4 µM (not active)

## CN1CCN(c2ccc(Cl)cc2NC(=O)CC2OC(=O)c3ccccc32)CC1 (stereo unspecified)
[13]
  IC50: 2.9 µM (active)
[14]
  IC50: 3.24 µM (active)

## COc1cc2cc(c1Cl)N(C)C(=O)CC(OC(=O)C(C)N(C)C(C)=O)C1(C)OC1C(C)C1CC(O)(NC(=O)O1)C(OC)C=CC=C(C)C2 (stereo unspecified)
Vero
  CC50: < 0.05 µM (active)

## CC(/C=C(\O)c1ccncc1)=N\c1ccccc1O
[1]
  EC50: 3.26 µM (active)
cells
  IC50: 3.1 µM (active)

## COc1cc(/C=N/NS(=O)(=O)c2ccc(C)cc2)ccc1OCc1ccc(C(=O)O)cc1
[3]
  AC50: 3.18 µM (active)
[15]
  IC50: > 50 µM (not active)
[4]
  AC50: 2.5 µM (active)
[5]
  AC50: 8.31 µM (active)
Paired box protein Pax-8
  AC50: 23.9 µM (active)
[6]
  AC50: 16.1 µM (active)
